We go through 11 compounds from patent publication US20090143279A1 (priority 2007, published 2009).

Like-named read-outs stand apart in the source and are kept apart here.

Test [1] relates to mitochondrial membrane potential. In kind it is cell-based, mouse. Particulars: for ΔΨm (composite Z-score): normalized score vs mock-treated (DMSO) wells.
Test [2] relates to reactive oxygen species. In kind it is cell-based, mouse. Conditions: for ROS (composite Z-score): normalized score vs mock-treated (DMSO) wells.
The subject of test [3] is OXPHOS gene expression. The test is classed as cell-based, mouse. Conditions: for GE-HTS (composite Z-score): normalized score vs mock-treated (DMSO) wells.
For test [4], the system named is nuOXPHOS transcripts. The test is classed as cell-based, mouse. Conditions: for nucOX (composite Z-score): normalized score vs mock-treated (DMSO) wells.
The test system of test [5] is mtOXPHOS transcripts. In kind it is cell-based, mouse. Conditions: for mitoOX (composite Z-score): normalized score vs mock-treated (DMSO) wells.
In test [6] the test system is cytochrome c. In kind it is cell-based, mouse. Conditions: for cyt c (composite Z-score): normalized score vs mock-treated (DMSO) wells.
For test [7], the system named is C2C12 myotubes. Conditions: for Viability (composite Z-score): normalized score vs mock-treated (DMSO) wells.
Test [8] relates to cellular dehydrogenase activity. Particulars: for MTT (composite Z-score): normalized score vs mock-treated (DMSO) wells.
[9] abbreviates: composite Z-score vs mock-treated (DMSO) wells, concentration of each compound in μM.
Setting [10] is: normalized composite Z-score vs mock-treated (DMSO) wells, Conc 20 μM.
[11] abbreviates: composite Z-score vs mock-treated (DMSO) wells, Conc 20 μM.
The mark [12] stands for this setting: composite Z-score vs DMSO, Conc 20 μM.
[13] abbreviates: 20 μM, composite Z-score vs DMSO.

In the case of `CC(C(=O)O)[C@H]1CCC2C3CC=C4C[C@@H](O)CC[C@]4(C)C3CC[C@@]21C` (stereo partly drawn), the ΔΨm in test [1] (setting [9]) is given as −0.402. The ROS in test [2] (setting [9]) was 0.315. The compound also came in with a GE-HTS in test [3] (setting [9]) of 0.756. For the same compound, in test [4] (setting [9]), the nucOX is 0.793. The same compound gave a mitoOX in test [5] (setting [9]) of 0.486. Also, the cyt c in test [6] (setting [9]) is reported as −0.309. The same compound gave a Viability in test [7] (setting [9]) of −0.295. The MTT in test [8] (setting [9]) is given as −0.244.

Take `CC(=O)O[C@H]1CC[C@]2(C)C(C[C@H](OC(C)=O)[C@]3(C)C4=CC(=O)OC(c5ccoc5)[C@@]4(C)CCC23)C1(C)C` (stereo partly drawn): the “ΔΨm (composite Z-score)” value in test [1] (Conc 20 μM) is listed as −0.208. Besides, in test [2] (Conc 20 μM), the “ROS (composite Z-score)” value is on record as 1.848. Also, the “GE-HTS (composite Z-score)” value in test [3] (Conc 20 μM) was −1.124. In test [4] (Conc 20 μM), the “nucOX (composite Z-score)” value is recorded as −1.228. The “mitoOX (composite Z-score)” value in test [5] (Conc 20 μM) was −0.653. For the same compound, the “cyt c (composite Z-score)” value in test [6] (Conc 20 μM) is 0.161. For the same compound, the “Viability (composite Z-score)” value in test [7] (Conc 20 μM) is listed as −0.292. Also, the “MTT (composite Z-score)” value in test [8] (Conc 20 μM) was −0.810.

On to `COc1ccc2c(c1)C1(C)CCC(=O)CC1CC2` (stereo not drawn), for which, in test [1] (Conc 20 μM), the “ΔΨm (composite Z-score)” value was −0.939. The “ROS (composite Z-score)” value in test [2] (Conc 20 μM) is given as 0.625. The “GE-HTS (composite Z-score)” value in test [3] (Conc 20 μM) was 0.129. Besides, the “nucOX (composite Z-score)” value in test [4] (Conc 20 μM) stood at 0.140. Moreover, the “mitoOX (composite Z-score)” value in test [5] (Conc 20 μM) was found to be 0.061. For the same compound, in test [6] (Conc 20 μM), the “cyt c (composite Z-score)” value is recorded as −0.239. Also, the “Viability (composite Z-score)” value in test [7] (Conc 20 μM) was −1.914. Besides, the “MTT (composite Z-score)” value in test [8] (Conc 20 μM) is given as −1.993.

Turning to `O=C(O)c1nc2cc(Cl)c(Cl)cc2nc1O`, the “ΔΨm (composite Z-score)” value in test [1] (Conc 20 μM) is recorded as −0.521. Also, in test [2] (Conc 20 μM), the “ROS (composite Z-score)” value is reported as 0.666. Besides, the “GE-HTS (composite Z-score)” value in test [3] (Conc 20 μM) was −0.320. For the same compound, the “nucOX (composite Z-score)” value in test [4] (Conc 20 μM) is listed as −0.313. Also, in test [5] (Conc 20 μM), the “mitoOX (composite Z-score)” value is recorded as −0.230. In test [6] (Conc 20 μM), the “cyt c (composite Z-score)” value is 0.217. In addition, in test [7] (Conc 20 μM), the “Viability (composite Z-score)” value is 0.109. Moreover, in test [8] (Conc 20 μM), the “MTT (composite Z-score)” value is −0.131.

Take `O=C(O)CCC/C=C\CC1COC(C(F)(F)F)OC1c1ccccc1O` (stereo not drawn): the ΔΨm in test [1] (setting [9]) is recorded as −0.087. This compound also showed an ROS in test [2] (setting [9]) of 0.713. In addition, the GE-HTS in test [3] (setting [9]) amounted to 0.344. In test [4] (setting [9]), this compound registered a nucOX of 0.169. The compound further registered a mitoOX in test [5] (setting [9]) of 0.594. In addition, in test [6] (setting [9]), the cyt c is given as −0.437. The compound further gave a Viability in test [7] (setting [9]) of −0.413. Moreover, in test [8] (setting [9]), the MTT is −0.548.

Compound `CC1(C)CC2C1CC[C@]1(CBr)CCC3C(CC(=O)O)C(=O)O[C@@]32C1` (stereo partly drawn) had a ΔΨm in test [1] (setting [10]) of −0.084. The same compound came in with an ROS in test [2] (setting [10]) of 0.604. Besides, in test [3] (setting [10]), the GE-HTS is on record as −1.029. Besides, in test [4] (setting [10]), the nucOX is given as −0.612. Moreover, the mitoOX in test [5] (setting [10]) is recorded as −1.624. The same compound came in with a cyt c in test [6] (setting [10]) of 0.551. Also, the Viability in test [7] (setting [10]) is −0.498. Besides, the MTT in test [8] (setting [10]) is recorded as −0.892.

As for `COC(=O)[C@@H]1OC(=O)C2OC23[C@@]1(C)CCC1[C@]2(C)C(C[C@@H](O)[C@]13C)C(C)(C)[C@H](OC(C)=O)C[C@@H]2OC(C)=O` (stereo partly drawn), in test [1] (setting [11]), the ΔΨm is −0.579. Further, the ROS in test [2] (setting [11]) was found to be 0.177. Moreover, the GE-HTS in test [3] (setting [11]) was −0.376. Besides, in test [4] (setting [11]), the nucOX is −0.485. The compound further registered a mitoOX in test [5] (setting [11]) of −0.039. The cyt c in test [6] (setting [11]) was 1.004. In test [7] (setting [11]), this compound showed a Viability of 0.474. The compound also yielded an MTT in test [8] (setting [11]) of −0.427.

`COC(=O)CCC(=O)O[C@H]1CC[C@@]2(C)[C@@H](CC[C@@H]3[C@@H]2C(=O)C(O)[C@]2(C)[C@@H]4[C@H](C[C@@H]32)O[C@]2(CC[C@@H](C)CO2)[C@H]4C)C1` (stereo partly drawn) returned a ΔΨm in test [1] (setting [12]) of −0.760. Further, in test [2] (setting [12]), the ROS is 0.918. The GE-HTS in test [3] (setting [12]) is −0.063. Further, the nucOX in test [4] (setting [12]) is listed as 0.054. The compound also came in with a mitoOX in test [5] (setting [12]) of −0.217. In test [6] (setting [12]), this compound had a cyt c of −0.005. Further, the Viability in test [7] (setting [12]) is reported as −0.315. This compound registered an MTT in test [8] (setting [12]) of −1.387.

`COC(=O)c1cccc2cc(OC)c(OC)c(OC)c2c1=O` gave a ΔΨm in test [1] (setting [11]) of −0.254. In test [2] (setting [11]), this compound displayed an ROS of 0.800. The compound further displayed a GE-HTS in test [3] (setting [11]) of 0.231. Besides, the nucOX in test [4] (setting [11]) is 0.287. In test [5] (setting [11]), this compound displayed a mitoOX of 0.117. The compound further came in with a cyt c in test [6] (setting [11]) of −0.229. For the same compound, the Viability in test [7] (setting [11]) is −0.836. This compound registered an MTT in test [8] (setting [11]) of −2.317.

`NC(=O)c1ccc[n+]([C@@H]2O[C@H](COP(=O)([O-])OP(=O)(O)OC[C@H]3O[C@@H](n4cnc5c(N)ncnc54)[C@H](OP(=O)(O)O)[C@@H]3O)[C@@H](O)[C@H]2O)c1` returned a ΔΨm in test [1] (setting [13]) of −0.582. In addition, in test [2] (setting [13]), the ROS is −0.038. For the same compound, the GE-HTS in test [3] (setting [13]) was −0.424. For the same compound, in test [4] (setting [13]), the nucOX is listed as −0.307. Besides, the mitoOX in test [5] (setting [13]) is on record as −0.615. Moreover, in test [6] (setting [13]), the cyt c is 0.101. The same compound displayed a Viability in test [7] (setting [13]) of −0.562. In test [8] (setting [13]), this compound returned an MTT of −1.286.

Take nonoxynol-9: in test [1] (setting [9]), the ΔΨm is listed as −1.484. The same compound had an ROS in test [2] (setting [9]) of 0.528. This compound also showed a GE-HTS in test [3] (setting [9]) of −0.872. This compound also registered a nucOX in test [4] (setting [9]) of −1.114. This compound also gave a mitoOX in test [5] (setting [9]) of −0.138. Moreover, the Viability in test [7] (setting [9]) is −0.209. In addition, the MTT in test [8] (setting [9]) is −1.228.
